Results: US11236106B2, “Cycloalkane-1,3-diamine derivative” (Daiichi Sankyo Company, Limited, priority 2018, dated 2022)
Structures can show the parent of a compound that is named as a salt.

Target: T1, menin and MLL (menin, Flag tagged; biotinylated MLL1 peptide 1-46aa) (Homo sapiens, UniProt O00255)
T1 sequence (O00255 1-610): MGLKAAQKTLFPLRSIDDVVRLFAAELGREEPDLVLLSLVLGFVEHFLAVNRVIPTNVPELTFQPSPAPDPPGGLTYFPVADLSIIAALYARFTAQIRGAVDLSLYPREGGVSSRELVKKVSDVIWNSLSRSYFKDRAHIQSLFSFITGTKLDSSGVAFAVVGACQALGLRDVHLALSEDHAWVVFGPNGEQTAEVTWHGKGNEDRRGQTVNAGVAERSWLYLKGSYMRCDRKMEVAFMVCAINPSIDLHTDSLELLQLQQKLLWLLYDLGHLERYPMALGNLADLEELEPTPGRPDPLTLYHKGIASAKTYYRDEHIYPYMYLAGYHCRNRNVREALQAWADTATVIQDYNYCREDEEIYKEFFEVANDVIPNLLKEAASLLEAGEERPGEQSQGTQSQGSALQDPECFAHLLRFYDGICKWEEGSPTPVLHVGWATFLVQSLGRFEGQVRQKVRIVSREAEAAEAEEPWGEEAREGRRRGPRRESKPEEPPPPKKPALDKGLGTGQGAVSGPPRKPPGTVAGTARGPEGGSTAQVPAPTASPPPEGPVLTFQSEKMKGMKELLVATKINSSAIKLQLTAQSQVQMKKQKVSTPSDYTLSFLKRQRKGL
Assay: biochemical
Conditions: not given

SMILES	IC50 [nM]
CN(c1ncnc2sc(CC(F)(F)F)cc12)[C@H]1C[C@@H](NCc2ccc(-n3cnc4ccccc43)cc2)C[C@H]1O [Example 79, (1R,2S,4R)-4-({[4-(1H-benzimidazol-yl)phenyl]methyl}amino)-2-{methyl[6-(2,2,2-trifluoroethyl)thieno[2,3-d]pyrimidin-4-yl]amino}cyclopentan-1-ol hydrochloride]	3.5
COc1cc(-c2ccc(CN[C@H]3C[C@@H](O)[C@@H](N(C)c4ncnc5sc(CC(F)(F)F)cc45)C3)cc2)nnc1N1CCC1 [Example 105, (1R,2S,4R)-4-[({4-[6-(azetidin-1-yl)-5-methoxypyridazin-3-yl]phenyl}methyl)amino]-2-{methyl[6-(2,2,2-trifluoroethyl)thieno[2,3-d]pyrimidin-4-yl]amino}cyclopentan-1-ol hydrochloride]	8

Same assay, conditions: IC50, binding inhibitory activity between menin and MLL, AlphaLISA; 1 nM menin, 10 nM biotinylated MLL1 peptide

SMILES	IC50 [nM]
CN(c1ncnc2sc(CC(F)(F)F)cc12)[C@H]1C[C@@H](NCc2ccc(-c3cncc4c3cnn4C)cc2)C[C@H]1O [Example 72, (1R,2S,4R)-4-({[4-(1-methyl-1H-pyrazolo[3,4-c]pyridin-4-yl)phenyl]methyl}amino)-2-{methyl[6-(2,2,2-trifluoroethyl)thieno[2,3-d]pyrimidin-4-yl]amino}cyclopentan-1-ol hydrochloride]	10.7
COc1cc(-c2ccc(CN[C@H]3C[C@@H](O)[C@@H](N(C)c4ncnc5sc(CC(F)(F)F)cc45)C3)cc2)nnc1C#N [Example 99, 6-[4-({[(1R,3R,4S)-3-hydroxy-4-{methyl[6-(2,2,2-trifluoroethyl)thieno[2,3-d]pyrimidin-4-yl]amino}cyclopentyl]amino}methyl)phenyl]-4-methoxypyridazine-3-carbonitrile hydrochloride]	1.1
COc1nc(N(C)[C@H]2C[C@@H](NCc3ccc(-c4nn(C(F)F)c(=O)cc4OC)cc3)C[C@H]2O)c2cc(CC(F)(F)F)sc2n1 [Example 111, 2-(difluoromethyl)-6-[4-({[(1R,3R,4S)-3-hydroxy-4-{[2-methoxy-6-(2,2,2-trifluoroethyl)thieno[2,3-d]pyrimidin-4-yl](methyl)amino}cyclopentyl]amino}methyl)phenyl]-5-methoxypyridazin-3(2H)-one hydrochloride]	42.3
COc1cc(-c2ccc(CN[C@H]3C[C@@H](O)[C@@H](N(C)c4ncncc4Oc4ccc(F)cc4-c4ccccc4C(C)C)C3)cc2)nnc1OC [Example 101, (1R,2S,4R)-4-({[4-(5,6-dimethoxypyridazin-3-yl)phenyl]methyl}amino)-2-[(5-{[5-fluoro-2′-(propan-2-yl)[1,1′-biphenyl]-2-yl]oxy}pyrimidin-4-yl)(methyl)amino]cyclopentan-1-ol hydrochloride]	2.7
COc1nc(N(C)[C@H]2C[C@@H](NCc3ccc(-c4cnc(CO)c(OC)c4)cc3)C[C@H]2O)c2cc(CC(F)(F)F)sc2n1 [Example 112, (1R,2S,4R)-4-[({4-[6-(hydroxymethyl)-5-methoxypyridin-3-yl]phenyl}methyl)amino]-2-{[2-methoxy-6-(2,2,2-trifluoroethyl)thieno[2,3-d]pyrimidin-4-yl](methyl)amino}cyclopentan-1-ol hydrochloride]	0.8
CN(c1ncnc2sc(CC(F)(F)F)cc12)[C@H]1C[C@@H](NCc2ccc(-c3cnc(Cl)c4cc[nH]c34)cc2)C[C@H]1O [Example 70, (1R,2S,4R)-4-({[4-(4-chloro-1H-pyrrolo[3,2-c]pyridin-7-yl)phenyl]methyl}amino)-2-{methyl[6-(2,2,2-trifluoroethyl)thieno[2,3-d]pyrimidin-4-yl]amino}cyclopentan-1-ol hydrochloride]	3.8
COc1cc(-c2ccc(CN[C@H]3C[C@@H](O)[C@@H](N(C)c4ncnc5sc(CC(F)(F)F)cc45)C3)cc2F)cnc1F [Example 74, (1R,2S,4R)-4-({[3-fluoro-4-(6-fluoro-5-methoxypyridin-3-yl)phenyl]methyl}amino)-2-{methyl[6-(2,2,2-trifluoroethyl)thieno[2,3-d]pyrimidin-4-yl]amino}cyclopentan-1-ol hydrochloride]	6.5
CNc1nc(N(C)[C@H]2C[C@@H](NCc3ccc(-c4ccc(F)c(OC)c4F)cc3)C[C@H]2O)c2cc(CC(F)(F)F)sc2n1 [Example 87, (1R,2S,4R)-4-{[(2′,4′-difluoro-3′-methoxy[1,1′-biphenyl]-4-yl)methyl]amino}-2-{methyl[2-(methylamino)-6-(2,2,2-trifluoroethyl)thieno[2,3-d]pyrimidin-4-yl]amino}cyclopentan-1-ol hydrochloride]	6.6
CN(c1ncnc2sc(CC(F)(F)F)cc12)[C@H]1C[C@@H](NCc2ccc(-c3cncc4ccccc34)cc2)C[C@H]1O [Example 83, (1R,2S,4R)-4-({[4-(isoquinolin-4-yl)phenyl]methyl}amino)-2-{methyl[6-(2,2,2-trifluoroethyl)thieno[2,3-d]pyrimidin-4-yl]amino}cyclopentan-1-ol hydrochloride]	4.9
COc1nc(N(C)[C@H]2C[C@@H](NCc3ccc(-c4cnc(C#N)c(OC)c4)cc3)C[C@H]2O)c2cc(CC(F)(F)F)sc2n1 [Example 106, 5-[4-({[(1R,3R,4S)-3-hydroxy-4-{[2-methoxy-6-(2,2,2-trifluoroethyl)thieno[2,3-d]pyrimidin-4-yl](methyl)amino}cyclopentyl]amino}methyl)phenyl]-3-methoxypyridine-2-carbonitrile hydrochloride]	0.7
CNc1nc(N(C)[C@H]2C[C@@H](NCc3ccc(-c4cc(F)c(F)c(OC)c4)cc3)C[C@H]2O)c2cc(CC(F)(F)F)sc2n1 [Example 82, (1R,2S,4R)-4-{[(3′,4′-difluoro-5′-methoxy[1,1′-biphenyl]-4-yl)methyl]amino}-2-{methyl[2-(methylamino)-6-(2,2,2-trifluoroethyl)thieno[2,3-d]pyrimidin-4-yl]amino}cyclopentan-1-ol hydrochloride]	22.8
COc1cc(-c2ccc(CN[C@H]3C[C@@H](O)[C@@H](N(C)c4ncnc5sc(CC(F)(F)F)cc45)C3)cc2)cnc1C(F)(F)F [Example 88, (1R,2S,4R)-4-[({4-[5-methoxy-6-(trifluoromethyl)pyridin-3-yl]phenyl}methyl)amino]-2-{methyl[6-(2,2,2-trifluoroethyl)thieno[2,3-d]pyrimidin-4-yl]amino}cyclopentan-1-ol hydrochloride]	27.8

Same assay, conditions: cell free IC50 (nM), 1 nM menin, 10 nM biotinylated MLL1 peptide, AlphaLISA

SMILES	IC50 [nM]
CN(c1ncnc2sc(CC(F)(F)F)cc12)[C@@H]1CC[C@H](NCc2ccc(Nc3cnn(C)c3)cc2)C1 [Example 12, (1R,3S)—N^1-methyl-N^3-({4-[(1-methyl-1H-pyrazol-4-yl)amino]phenyl}methyl)-N^1-[6-(2,2,2-trifluoroethyl)thieno[2,3-d]pyrimidin-4-yl]cyclopentane-1,3-diamine]	33.8
COCc1cc2c(N(C)[C@@H]3CC[C@H](NCc4ccc(-c5cncc(OC)c5)cc4)C3)ncnc2s1 [Example 47, (1R,3S)-N^1-[6-(methoxymethyl)thieno[2,3-d]pyrimidin-4-yl]-N^3-{[4-(5-methoxypyridin-3-yl)phenyl]methyl}-N^1-methylcyclopentane-1,3-diamine hydrochloride]	97.2
O=C1CCC(c2ccc(CN[C@H]3CCC[C@@H](Nc4ncnc5sc(CC(F)(F)F)cc45)C3)cc2)N1 (mixture of isomers) [Example 39, 5-[4-({[(1S,3R)-3-{[6-(2,2,2-trifluoroethyl)thieno[2,3-d]pyrimidin-4-yl[amino}cyclohexyl]amino}methyl)phenyl]pyrrolidin-2-one hydrochloride (diastereomer mixture)]	2070
C=CC(=O)NCCCNC(=O)c1ccc(CN[C@H]2CC[C@@H](N(C)c3ncnc4sc(CC(F)(F)F)cc34)C2)cc1 [Example 6, 4-({[(1S,3R)-3-{methyl[6-(2,2,2-trifluoroethyl)thieno[2,3-d]pyrimidin-4-yl]amino}cyclopentyl]amino}methyl)-N-{3-[(prop-2-enoyl)amino]propyl}benzamide Hydrochloride]	81.9
CCN(c1ncnc2sc(CC(F)(F)F)cc12)[C@@H]1CC[C@H](NCc2ccc(-c3cccnc3)cc2)C1 [Example 43, (1R,3S)-N^1-ethyl-N^3-{[4-(pyridin-3-yl)phenyl]methyl}-N^1-[6-(2,2,2 trifluoroethyl)thieno[2,3-d]pyrimidin-4-yl]cyclopentane-1,3-diamine hydrochloride]	76.2
CN(c1ncnc2sc(CC(F)(F)F)cc12)[C@@H]1CC[C@H](NCc2ccc(S(=O)(=O)N3CCCCCC3)cc2)C1 [Example 59, (1R,3S)-N^3-{[4-(azepane-1-sulfonyl)phenyl]methyl)-N^1methyl-N^1-[6-(2,2,2-trifluoroethyl)thieno[2,3-d]pyrimidin-4-yl]cyclopentane-1,3-diamine hydrochloride]	33
CN(c1ncnc2sc(CC(F)(F)F)cc12)[C@@H]1CC[C@H](NCC2CCCCC2)C1 [Example 28, (1R,3S)-N^3-(cyclohexylmethyl)-N^1-methyl-N^1-[6-(2,2,2-trifluoroethyl)thieno[2,3-d]pyrimidin-4-yl]cyclopentane-1,3-diamine hydrochloride]	1160
